According to ChEMBL document CHEMBL1667726, “Macrophyllionium and macrophyllines A and B, oxindole alkaloids from Uncaria macrophylla” (J Nat Prod, 2011):
In brackets after ≈: the same amount, converted by molar mass.

Each compound was assayed on HL-60 (assay: Cytotoxicity against human HL60 cells after 48 hrs by MTT assay). Conditions: HL-60, 48 h.
Format: functional, cell-based
`CC[C@@H]1CN2CCc3c([nH]c4ccccc34)[C@@H]2C[C@@H]1/C(=C/OC)C(=O)OC` [CORYNANTHEIDINE] showed an IC50 of 14 µM.
With `CC[C@@H]1CN2CC[C@]3(C(=O)Nc4ccccc43)[C@@H]2C[C@@H]1/C(=C\OC)C(=O)OC` [CORYNOXINE B] the IC50 was > 40 µM.
`CC[C@@H]1CN2CC[C@@]3(C(=O)Nc4ccccc43)[C@@H]2C[C@@H]1/C(=C\OC)C(=O)OC` [CORYNOXINE] was tested, and the IC50 was > 40 µM.
For `CC[C@H]1CN2CCc3c([nH]c4ccccc34)[C@@H]2C[C@@H]1/C(=C/OC)C(=O)OC` [DIHYDROCORYNANTHEINE], the IC50 was > 40 µM.
For `CC[C@H]1CN2CC[C@@]3(C(=O)Nc4ccccc43)[C@@H]2C[C@@H]1/C(=C\OC)C(=O)OC` [ISORHYNCHOPHYLLINE], the IC50 was > 40 µM.
With `CC[C@@H]1[C@@H](/C(=C/OC)C(=O)OC)C[C@@H]2N(CC[C@]23C(=O)Nc2ccccc23)[C@H]1CC(C)=O` [MACROPHYLLINE A] the IC50 was > 40 µM.
With `CC[C@@H]1[C@@H](/C(=C/OC)C(=O)OC)C[C@@H]2N(CC[C@@]23C(=O)Nc2ccccc23)[C@H]1CC(C)=O` [MACROPHYLLINE B] the IC50 was > 40 µM.
For `CC[C@H]1C[N@@+]2(C)CC[C@]3(C([O-])=Nc4ccccc43)[C@H]2C[C@@H]1/C(=C/OC)C(=O)OC` [MACROPHYLLIONIUM], the IC50 was > 40 µM.
For `CC[C@H]1CN2CC[C@]3(C(=O)Nc4ccccc43)[C@@H]2C[C@@H]1/C(=C\OC)C(=O)OC` [RHYNCHOPHYLLINE], the IC50 was > 40 µM.

Each compound was assayed on SW480 (assay: Cytotoxicity against human SW480 cells after 48 hrs by MTT assay). Conditions: SW480, 48 h.
Format: functional, cell-based
`CC[C@@H]1CN2CCc3c([nH]c4ccccc34)[C@@H]2C[C@@H]1/C(=C/OC)C(=O)OC` [CORYNANTHEIDINE] showed an IC50 of 23.3 µM.
`CC[C@@H]1CN2CC[C@]3(C(=O)Nc4ccccc43)[C@@H]2C[C@@H]1/C(=C\OC)C(=O)OC` [CORYNOXINE B] was tested, and the IC50 was > 40 µM.
With `CC[C@@H]1CN2CC[C@@]3(C(=O)Nc4ccccc43)[C@@H]2C[C@@H]1/C(=C\OC)C(=O)OC` [CORYNOXINE] the IC50 was > 40 µM.
For `CC[C@H]1CN2CCc3c([nH]c4ccccc34)[C@@H]2C[C@@H]1/C(=C/OC)C(=O)OC` [DIHYDROCORYNANTHEINE], the IC50 was > 40 µM.
`CC[C@H]1CN2CC[C@@]3(C(=O)Nc4ccccc43)[C@@H]2C[C@@H]1/C(=C\OC)C(=O)OC` [ISORHYNCHOPHYLLINE] was tested, and the IC50 was > 40 µM.
`CC[C@@H]1[C@@H](/C(=C/OC)C(=O)OC)C[C@@H]2N(CC[C@]23C(=O)Nc2ccccc23)[C@H]1CC(C)=O` [MACROPHYLLINE A] was tested, and the IC50 was > 40 µM.
`CC[C@@H]1[C@@H](/C(=C/OC)C(=O)OC)C[C@@H]2N(CC[C@@]23C(=O)Nc2ccccc23)[C@H]1CC(C)=O` [MACROPHYLLINE B] was tested, and the IC50 was > 40 µM.
With `CC[C@H]1C[N@@+]2(C)CC[C@]3(C([O-])=Nc4ccccc43)[C@H]2C[C@@H]1/C(=C/OC)C(=O)OC` [MACROPHYLLIONIUM] the IC50 was > 40 µM.
For `CC[C@H]1CN2CC[C@]3(C(=O)Nc4ccccc43)[C@@H]2C[C@@H]1/C(=C\OC)C(=O)OC` [RHYNCHOPHYLLINE], the IC50 was > 40 µM.

These compounds were tested on Aorta (assay: Vasodilatory activity in Sprague-Dawley rat thoracic aorta smooth muscle assessed as inhibition of KCL-induced vasoconstriction). Conditions: not given.
Format: functional, tissue-based
With `CC[C@@H]1CN2CCc3c([nH]c4ccccc34)[C@@H]2C[C@@H]1/C(=C/OC)C(=O)OC` [CORYNANTHEIDINE] the IC50 was > 30 µg/mL.
For `CC[C@@H]1CN2CC[C@]3(C(=O)Nc4ccccc43)[C@@H]2C[C@@H]1/C(=C\OC)C(=O)OC` [CORYNOXINE B], the IC50 was > 30 µg/mL.
`CC[C@@H]1CN2CC[C@@]3(C(=O)Nc4ccccc43)[C@@H]2C[C@@H]1/C(=C\OC)C(=O)OC` [CORYNOXINE] was tested, and the IC50 was > 30 µg/mL.
`CC[C@H]1CN2CCc3c([nH]c4ccccc34)[C@@H]2C[C@@H]1/C(=C/OC)C(=O)OC` [DIHYDROCORYNANTHEINE] was tested, and the IC50 was 6.73 µg/mL (≈ 18.3 µM).
`CC[C@H]1CN2CC[C@@]3(C(=O)Nc4ccccc43)[C@@H]2C[C@@H]1/C(=C\OC)C(=O)OC` [ISORHYNCHOPHYLLINE] was tested, and the IC50 was > 30 µg/mL.
`CC[C@@H]1[C@@H](/C(=C/OC)C(=O)OC)C[C@@H]2N(CC[C@]23C(=O)Nc2ccccc23)[C@H]1CC(C)=O` [MACROPHYLLINE A] was tested, and the IC50 was > 30 µg/mL.
In the case of `CC[C@@H]1[C@@H](/C(=C/OC)C(=O)OC)C[C@@H]2N(CC[C@@]23C(=O)Nc2ccccc23)[C@H]1CC(C)=O` [MACROPHYLLINE B], the IC50 is reported as > 30 µg/mL.
`CC[C@H]1C[N@@+]2(C)CC[C@]3(C([O-])=Nc4ccccc43)[C@H]2C[C@@H]1/C(=C/OC)C(=O)OC` [MACROPHYLLIONIUM] was tested, and the IC50 was > 30 µg/mL.
For `CC[C@H]1CN2CC[C@]3(C(=O)Nc4ccccc43)[C@@H]2C[C@@H]1/C(=C\OC)C(=O)OC` [RHYNCHOPHYLLINE], the IC50 was > 30 µg/mL.
Work on `COc1ccc(CCN(C)CCCC(C#N)(c2ccc(OC)c(OC)c2)C(C)C)cc1OC` (stereo not drawn) [VERAPAMIL] yielded an IC50 of 1.41 µg/mL (≈ 3.1 µM).

What follows are compounds tested on Aorta (assay: Vasodilatory activity in Sprague-Dawley rat thoracic aorta smooth muscle assessed as inhibition of phenylephrine-induced vasoconstriction). Conditions: not given.
Format: functional, tissue-based
In the case of `CC[C@@H]1CN2CCc3c([nH]c4ccccc34)[C@@H]2C[C@@H]1/C(=C/OC)C(=O)OC` [CORYNANTHEIDINE], the IC50 is reported as > 30 µg/mL.
In the case of `CC[C@@H]1CN2CC[C@]3(C(=O)Nc4ccccc43)[C@@H]2C[C@@H]1/C(=C\OC)C(=O)OC` [CORYNOXINE B], the IC50 is reported as > 30 µg/mL.
In the case of `CC[C@@H]1CN2CC[C@@]3(C(=O)Nc4ccccc43)[C@@H]2C[C@@H]1/C(=C\OC)C(=O)OC` [CORYNOXINE], the IC50 is reported as > 30 µg/mL.
`CC[C@H]1CN2CCc3c([nH]c4ccccc34)[C@@H]2C[C@@H]1/C(=C/OC)C(=O)OC` [DIHYDROCORYNANTHEINE] gave an IC50 of 21.8 µg/mL (≈ 59.2 µM).
Compound `CC[C@H]1CN2CC[C@@]3(C(=O)Nc4ccccc43)[C@@H]2C[C@@H]1/C(=C\OC)C(=O)OC` [ISORHYNCHOPHYLLINE] has an IC50 of 18.4 µg/mL (≈ 47.9 µM).
In the case of `CC[C@@H]1[C@@H](/C(=C/OC)C(=O)OC)C[C@@H]2N(CC[C@]23C(=O)Nc2ccccc23)[C@H]1CC(C)=O` [MACROPHYLLINE A], the IC50 is reported as 15.9 µg/mL (≈ 36 µM).
In the case of `CC[C@@H]1[C@@H](/C(=C/OC)C(=O)OC)C[C@@H]2N(CC[C@@]23C(=O)Nc2ccccc23)[C@H]1CC(C)=O` [MACROPHYLLINE B], the IC50 is reported as > 30 µg/mL.
`CC[C@H]1C[N@@+]2(C)CC[C@]3(C([O-])=Nc4ccccc43)[C@H]2C[C@@H]1/C(=C/OC)C(=O)OC` [MACROPHYLLIONIUM] was tested, and the IC50 was > 30 µg/mL.
With `CC[C@H]1CN2CC[C@]3(C(=O)Nc4ccccc43)[C@@H]2C[C@@H]1/C(=C\OC)C(=O)OC` [RHYNCHOPHYLLINE] the IC50 was > 30 µg/mL.
`COc1ccc(CCN(C)CCCC(C#N)(c2ccc(OC)c(OC)c2)C(C)C)cc1OC` (stereo not drawn) [VERAPAMIL] gave an IC50 of 0.32 µg/mL (≈ 0.704 µM).
